Where two headings read alike, the source gives them in different places. One block for each molecule: values may come before it.
Experiments:
[1] = molecular target: T1, rat adrenergic α1B receptor (Rattus norvegicus, UniProt P15823); test: Radioligand binding, adrenergic α1B ([3H]Prazosin); settings: for Percentage inhibition of ligand binding, Adrenergic α1B / Percentage inhibition of ligand binding, Adrenergic α1B (0.1 μM): compound at 0.1 μM, 0.1 µM; for Percentage inhibition of ligand binding, Adrenergic α1B: repeat assays, each datapoint shown
T1 construct: rat adrenergic α1B receptor obtained from Wistar Rat liver; from tissue; host or cells: Wistar rat liver
T1 sequence (P15823 1-515): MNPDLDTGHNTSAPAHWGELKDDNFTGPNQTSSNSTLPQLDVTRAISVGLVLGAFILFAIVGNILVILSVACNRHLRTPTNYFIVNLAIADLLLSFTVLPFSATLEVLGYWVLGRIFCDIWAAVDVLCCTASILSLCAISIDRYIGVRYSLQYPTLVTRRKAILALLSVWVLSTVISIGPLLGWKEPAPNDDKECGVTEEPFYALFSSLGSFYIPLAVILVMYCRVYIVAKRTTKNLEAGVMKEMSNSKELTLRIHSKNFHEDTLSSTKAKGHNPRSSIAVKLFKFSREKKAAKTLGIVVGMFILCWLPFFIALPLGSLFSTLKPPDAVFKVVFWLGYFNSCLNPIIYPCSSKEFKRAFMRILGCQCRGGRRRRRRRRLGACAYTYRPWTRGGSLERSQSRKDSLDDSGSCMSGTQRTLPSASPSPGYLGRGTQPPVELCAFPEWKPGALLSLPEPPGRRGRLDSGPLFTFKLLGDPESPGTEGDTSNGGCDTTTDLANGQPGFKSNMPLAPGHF
In short: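 Rat α1B receptor from Wistar rat liver was incubated with 0.25 nM [3H]prazosin for 60 min at 25 °C in 50 mM Tris-HCl, pH 7.4, 0.5 mM EDTA. Non-specific binding was defined with 10 μM phentolamine. Bound radioligand was measured by filtration and counting, reported as percent inhibition of specific binding.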

[2] = molecular target: T2, human recombinant adrenergic α2A receptor (Homo sapiens, UniProt P08913); test: Radioligand binding, adrenergic α2A ([3H]MK-912); settings: for Percentage inhibition of ligand binding, Adrenergic α2A / Percentage inhibition of ligand binding, Adrenergic α2A (0.1 μM): compound at 0.1 μM, 0.1 µM; for Percentage inhibition of ligand binding, Adrenergic α2A: repeat assays, each datapoint shown
T2 construct: expressed in transfected cells; host or cells: insect Sf9 cells
T2 sequence (P08913 1-465): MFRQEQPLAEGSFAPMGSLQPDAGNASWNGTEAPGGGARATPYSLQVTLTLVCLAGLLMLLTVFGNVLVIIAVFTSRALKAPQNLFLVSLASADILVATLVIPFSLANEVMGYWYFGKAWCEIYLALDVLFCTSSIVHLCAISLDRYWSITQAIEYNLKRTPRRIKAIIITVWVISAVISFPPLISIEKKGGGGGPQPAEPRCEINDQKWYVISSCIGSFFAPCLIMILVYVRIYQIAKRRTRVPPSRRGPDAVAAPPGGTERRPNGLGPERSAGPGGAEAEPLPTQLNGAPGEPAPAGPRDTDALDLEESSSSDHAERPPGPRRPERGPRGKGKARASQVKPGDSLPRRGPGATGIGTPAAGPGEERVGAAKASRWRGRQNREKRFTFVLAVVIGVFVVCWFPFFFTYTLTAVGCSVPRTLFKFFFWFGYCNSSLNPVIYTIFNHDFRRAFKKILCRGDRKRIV
In short: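 Receptor expressed in Sf9 cells, in 50 mM Tris-HCl pH 7.4, 12.5 mM MgCl2, 2 mM EDTA; compounds incubated with 1 nM [3H]MK-912 for 60 min at 25 °C.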

[3] = molecular target: T3, human recombinant adrenergic α2B receptor (Homo sapiens, UniProt P18089); test: Radioligand binding, adrenergic α2B ([3H]Rauwolscine); settings: for Percentage inhibition of ligand binding, Adrenergic α2B / Percentage inhibition of ligand binding, Adrenergic α2B (0.03 μM): compound at 0.03 μM, 0.03 µM; for Percentage inhibition of ligand binding, Adrenergic α2B: repeat assays, each datapoint shown
T3 construct: expressed in transfected cells; host or cells: CHO-K1
T3 sequence (P18089 1-450): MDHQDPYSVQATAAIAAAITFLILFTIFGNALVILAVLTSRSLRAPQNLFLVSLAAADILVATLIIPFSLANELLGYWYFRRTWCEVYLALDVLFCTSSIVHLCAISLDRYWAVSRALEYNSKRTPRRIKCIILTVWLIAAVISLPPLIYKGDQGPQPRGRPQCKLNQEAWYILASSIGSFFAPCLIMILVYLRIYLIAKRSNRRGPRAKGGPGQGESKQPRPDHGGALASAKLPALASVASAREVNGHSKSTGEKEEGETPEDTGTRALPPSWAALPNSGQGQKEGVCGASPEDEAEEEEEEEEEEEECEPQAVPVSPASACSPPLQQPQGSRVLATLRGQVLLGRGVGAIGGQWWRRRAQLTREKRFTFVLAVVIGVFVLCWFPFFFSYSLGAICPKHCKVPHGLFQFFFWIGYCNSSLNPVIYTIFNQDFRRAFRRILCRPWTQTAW
In short: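 Receptor expressed in CHO-K1 cells, assayed in 50 mM Tris-HCl pH 7.4 with 12.5 mM MgCl2, 1 mM EDTA and 0.2% BSA. Compounds were incubated with 2.5 nM [3H]Rauwolscine for 60 min at 25° C; 10 μM Prazosin defined non-specific binding. Filter counting gave percent inhibition of specific binding.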

[4] = 0.1 μM compound, read-out: Percentage inhibition of ligand binding, Adrenergic α1B
[5] = 0.1 μM compound, read-out: Percentage inhibition of ligand binding, Adrenergic α2A
[6] = 0.03 μM compound, read-out: Percentage inhibition of ligand binding, Adrenergic α2B
[7] = read-out: Percentage inhibition of ligand binding, Adrenergic α1B (0.1 μM), compound at 0.1 μM, [3H]Prazosin, repeat datapoints each shown
[8] = [3H]MK-912, repeat datapoints each shown
[9] = read-out: Percentage inhibition of ligand binding, Adrenergic α2B (0.03 μM), compound at 0.03 μM, [3H]Rauwolscine, repeat datapoints each shown
[10] = [3H]Prazosin, repeat datapoints each shown
[11] = [3H]Rauwolscine, repeat datapoints each shown
[12] = read-out: Percentage inhibition of ligand binding, Adrenergic α2A (0.1 μM), compound at 0.1 μM, [3H]MK-912, repeat datapoints each shown

SMILES: Cc1ccc2c(c1)c1c(n2CC(O)c2cccnc2)CN(C)CC1 (single isomer, unassigned) [43a, 2-(2,6-dimethyl-1,2,3,4-tetrahydro-β-carbolin-9-yl)-1-pyridin-3-yl-ethanol]
Percentage inhibition of ligand binding, Adrenergic α1B ([1]; [3H]Prazosin): 33% | Percentage inhibition of ligand binding, Adrenergic α2A ([2]; [3H]MK-912): 9% | Percentage inhibition of ligand binding, Adrenergic α2B ([3]; [3H]Rauwolscine): 51%

SMILES: Cc1ccc2c(c1)c1c(n2CC(O)c2ccc(C#N)nc2)CCN(C)C1 (stereo not shown) [compound 140, 5-[2-(2,8-dimethyl-1,2,3,4-tetrahydro-pyrido[4,3-b]indol-5-yl)-1-hydroxy-ethyl]-pyridine-2-carbonitrile]
Percentage inhibition of ligand binding, Adrenergic α1B (0.1 μM) [1, 10]: 37% | Percentage inhibition of ligand binding, Adrenergic α2A (0.1 μM) [2, 8]: −2% | Percentage inhibition of ligand binding, Adrenergic α2B (0.03 μM) [3, 11]: 49%

SMILES: CCC1c2c(c3cc(C)ccc3n2CC(O)c2ccncc2)C2CCN1C2 (single isomer, unassigned) [36b]
Percentage inhibition of ligand binding, Adrenergic α1B ([1]; [3H]Prazosin): 11% | Percentage inhibition of ligand binding, Adrenergic α2A ([2]; [3H]MK-912): 0% | Percentage inhibition of ligand binding, Adrenergic α2B ([3]; [3H]Rauwolscine): −1%

SMILES: CN1CCc2c(c3cc(C(F)(F)F)ccc3n2CC(O)c2cccnc2)C1 (single isomer, unassigned) [59b]
Percentage inhibition of ligand binding, Adrenergic α1B ([1]; [3H]Prazosin): 7% | Percentage inhibition of ligand binding, Adrenergic α2A ([2]; [3H]MK-912): 12% | Percentage inhibition of ligand binding, Adrenergic α2B ([3]; [3H]Rauwolscine): 31%

SMILES: Cc1ccc2c(c1)c1c(n2CC(O)c2ccncc2)CC2CCCN2C1 (single isomer, unassigned) [76c]
Percentage inhibition of ligand binding, Adrenergic α1B ([1]; [3H]Prazosin): 33% | Percentage inhibition of ligand binding, Adrenergic α2A ([2]; [3H]MK-912): 5% | Percentage inhibition of ligand binding, Adrenergic α2B ([3]; [3H]Rauwolscine): 35%

SMILES: Cc1ccc2c(c1)c1c(n2CC(N)c2ccncc2)CN(C)CC1 (stereo not shown) [compound 153, 2-(2,6-dimethyl-3,4-dihydro-1H-pyrido[3,4-b]indol-9(2H)-yl)-1-(pyridin-4-yl)ethanamine]
inhibition at 0.1 µM [1, 7]: 17% | inhibition at 0.1 µM [2, 12]: 6% | inhibition at 0.03 µM [3, 9]: 17%

SMILES: CN1CCc2c(n(CC(C)(O)c3cccnc3)c3ccc(Cl)cc23)C1 (single isomer, unassigned) [28b]
Percentage inhibition of ligand binding, Adrenergic α1B ([1]; [3H]Prazosin): 20% | Percentage inhibition of ligand binding, Adrenergic α2A ([2]; [3H]MK-912): 24% | Percentage inhibition of ligand binding, Adrenergic α2B ([3]; [3H]Rauwolscine): 37%

Next, values leading:

inhibition at 0.1 µM [1, 4]: 13% | inhibition at 0.1 µM [2, 5]: 0% | inhibition at 0.03 µM [3, 6]: 25%
SMILES: Cc1ccc2c(c1)c1c(n2CC(O)c2ccc(O)nc2)CCN(C)C1 (stereo not shown) [II-92, 5-(2-(1,2,3,4-tetrahydro-2,8-dimethylpyrido[4,3-b]indol-5-yl)-1-hydroxyethyl)pyridin-2(1H)-one]

inhibition at 0.1 µM [1, 4]: 34% | inhibition at 0.1 µM [2, 5]: 28% | inhibition at 0.03 µM [3, 6]: 33%
SMILES: Cc1ccc2c(c1)c1c(n2CC(O)c2ccncc2)C(C)N(C)CC1 (stereo not shown) [II-73]

inhibition at 0.1 µM [1, 7]: 83% | Percentage inhibition of ligand binding, Adrenergic α2A (0.1 μM) [2, 8]: 79% | inhibition at 0.03 µM [3, 9]: 105%
SMILES: Cc1ccc2c(c1)c1c(n2CC(C)(O)c2cccnc2)CCN2CCCC12 (single isomer, unassigned) [II-127a, 1-(9-methyl-1,2,3,4,5,10c-hexahydro-3a,6-diaza-cyclopenta[c]fluoren-6-yl)-2-pyridin-3-yl-propan-2-ol]

Percentage inhibition of ligand binding, Adrenergic α1B (0.1 μM) [1, 10]: 12% | Percentage inhibition of ligand binding, Adrenergic α2A (0.1 μM) [2, 8]: 2% | Percentage inhibition of ligand binding, Adrenergic α2B (0.03 μM) [3, 11]: 16%
SMILES: Cc1cnc2c(c1)c1c(n2CCc2ccncc2)CCN2CCCC12 (single isomer, unassigned) [II-244b, 9-methyl-6-(2-pyridin-4-yl-ethyl)-2,3,4,5,6,10c-hexahydro-1H-3a,6,7-triaza-cyclopenta[c]fluorene]

inhibition at 0.1 µM [1, 7]: 27% | inhibition at 0.1 µM [2, 12]: 4% | inhibition at 0.03 µM [3, 9]: 42%
SMILES: Cc1cnc2c(c1)c1c(n2CCc2cccnc2)CCN2CCCC12 (stereo not shown) [134a, 9-methyl-6-(2-pyridin-3-yl-ethyl)-2,3,4,5,6,10c-hexahydro-1H-3a,6,7-triaza-cyclopenta[c]fluorene]

inhibition at 0.1 µM [1, 7]: 54% | inhibition at 0.1 µM [2, 12]: 10% | inhibition at 0.03 µM [3, 9]: 27%
SMILES: Cc1ccc2c(c1)c1c(n2C(C)(C)C(O)c2ccccc2)CCN(C)C1 (stereo not shown) [II-187]

inhibition at 0.1 µM [1, 4]: 7% | inhibition at 0.1 µM [2, 5]: 0% | inhibition at 0.03 µM [3, 6]: 59%
SMILES: OC(Cn1c2c(c3cccnc31)C1CCCN1CC2)c1ccncc1 (stereo not shown) [II-79]

Percentage inhibition of ligand binding, Adrenergic α1B (0.1 μM) [1, 10]: 86% | inhibition at 0.03 µM ([1]; read-out: Percentage inhibition of ligand binding, Adrenergic α1B (0.03 μM), compound at 0.03 μM, [3H]Prazosin, repeat datapoints each shown): 56% | inhibition at 0.1 µM [1, 7]: 84% | Ki [2]: 13.1 nM | Percentage inhibition of ligand binding, Adrenergic α2A (0.1 μM) [2, 8]: 77% | inhibition at 0.03 µM ([2]; read-out: Percentage inhibition of ligand binding, Adrenergic α2A (0.03 μM), compound at 0.03 μM, [3H]MK-912, repeat datapoints each shown): 50% | inhibition at 0.1 µM [2, 12]: 74% | Percentage inhibition of ligand binding, Adrenergic α2B (0.03 μM) [3, 11]: 106% | Ki ([3]; read-out: Ki α2B): 0.49 nM | inhibition at 0.03 µM [3, 9]: 102%
SMILES: Cc1ccc2c(c1)c1c(n2CC(C)(O)c2ccc(C)nc2)CCN2CCCC12 (single isomer, unassigned) [II-128b, 1-(9-methyl-1,2,3,4,5,10c-hexahydro-3a,6-diaza-cyclopenta[c]fluoren-6-yl)-2-(6-methyl-pyridin-3-yl)-propan-2-ol]

inhibition at 0.1 µM [1, 4]: 12% | inhibition at 0.1 µM [2, 5]: 5% | inhibition at 0.03 µM [3, 6]: 17%
SMILES: CN1CCc2c(c3cc(C(C)(C)C)ccc3n2CC(O)c2ccncc2)C1 (stereo not shown) [II-68, 2-(8-tert-butyl-2-methyl-1,2,3,4-tetrahydro-pyrido[4,3-b]indol-5-yl)-1-pyridin-4-yl-ethanol]

Percentage inhibition of ligand binding, Adrenergic α1B (0.1 μM) [1, 10]: 10% | Percentage inhibition of ligand binding, Adrenergic α2A (0.1 μM) [2, 8]: 7% | Percentage inhibition of ligand binding, Adrenergic α2B (0.03 μM) [3, 11]: 18%
SMILES: Cc1ccc2c(c1Cl)c1c(n2CC(C)(O)c2cccnc2)CCN(C)C1 (single isomer, unassigned) [II-124b, 1-(9-chloro-2,8-dimethyl-3,4-dihydro-1H-pyrido[4,3-b]indol-5(2H)-yl)-2-(pyridin-3-yl)propan-2-ol]

Percentage inhibition of ligand binding, Adrenergic α1B (0.1 μM) [1, 10]: 47% | Percentage inhibition of ligand binding, Adrenergic α2A (0.1 μM) [2, 8]: 31% | Percentage inhibition of ligand binding, Adrenergic α2B (0.03 μM) [3, 11]: 24%
SMILES: CCN1CCc2c(c3cc(C)ccc3n2CC(O)c2ccc(C)cc2)C1 (single isomer, unassigned) [203b]

inhibition at 0.1 µM [1, 7]: 2% | inhibition at 0.1 µM [2, 12]: 12% | inhibition at 0.03 µM [3, 9]: 1%
SMILES: CN1CCc2c(c3ccncc3n2CC(C)(O)c2cccnc2)C1 (stereo not shown) [II-129]

Percentage inhibition of ligand binding, Adrenergic α1B (0.1 μM) [1, 10]: 60% | Percentage inhibition of ligand binding, Adrenergic α2A (0.1 μM) [2, 8]: 4% | Percentage inhibition of ligand binding, Adrenergic α2B (0.03 μM) [3, 11]: 42%
SMILES: Cc1ccc2c(c1)c1c(n2CC(O)c2ccncc2Cl)CCN(C)C1 (single isomer, unassigned) [135a]
